Measurements published in paper PMC5842390, “Protection Efficacy of C5A Against Vaginal and Rectal HIV Challenges in Humanized Mice” (The Open Virology Journal, 2018).
Read-outs that look alike come from different tables or passages of the source. Ends that are not written are not given here.

Key:
[1] = system: HIV JR-CSF; assay type: in vivo, humanized BLT mice; settings: for Slope parameter (m) of median-effect plot: median-effect model, analogous to Hill coefficient; for EC50: sigmoidal dose-response (variable slope) model, 6.25-200 µM, n=10 per concentration
From the text: Humanized BLT mice were created as described previously, by implanting 1-mm^3 pieces of human fetal liver and thymus tissues (Advanced Bioscience Resources) under the kidney capsule of 6- to 8-week-old female NSG mice (Jackson Laboratories) bred at The Scripps Research Institute (TSRI). Each cohort was produced with tissues from a single donor. CD34+ hematopoietic stem and progenitor cells (HSPC) were purified from autologous fetal liver tissue, isolated by magnetic bead selection for CD34+ cells (Miltenyi), phenotyped by flow cytometry, and cryopreserved until injection (200,000-350,000 CD34+ cells) into mice 3 weeks after fetal liver and thymus tissue implantation. Human cell population reconstitution in peripheral blood was confirmed by flow cytometry as described previously. Briefly, the degree of humanization of the BLT mice was evaluated at 20 weeks of age (10 weeks post-CD34+ HSPC injection) by analysis of percentages of human CD45+ cells and human CD45+ CD4+ CD3+ cells in peripheral blood by FACS. Mice with <65% human CD45+ cells and <70% human CD45+ CD4+ CD3+ cells were not used for HIV exposure experiments. Mice were kept at the Department of Animal Resources at TSRI in accordance with protocols approved by the TSRI Institutional Animal Care and Use Committee.
Solutions of C5A peptides were prepared in phosphate buffered saline (PBS). After verifying the reconstitution of mice with human cells, a dose ranging study was conducted to determine the EC50 of C5A for preventing vaginal and rectal HIV infection. Stocks of HIV JR-CSF were prepared as previously described and standardized by p24 ELISA. Prior to inoculation, mice were anesthetized with isoflurane. Aliquots of C5A in PBS (5 µL) were administered vaginally or rectally in decreasing concentrations (200, 100, 50, 25, 12.5 and 6.25 µM; n=10 mice per concentration). Fifteen minutes post-C5A topical administration, mice were challenged (vaginal challenge for vaginal C5A administration, rectal challenge for C5A rectal administration) with HIV.
Infection of BLT mice was analyzed by quantifying HIV RNA levels in peripheral blood (plasma) using one-step reverse transcriptase quantitative real-time PCR (ABI custom TaqMan Assays-by-Design) according to the manufacturer’s instructions. Primers were 5-[…]-3 and 5-TGCTTGATGT CCCCCCACT-3, and MGB-probe 5-FAM-[…]-Q-3, where FAM is 6-carboxyfluorescein [36-38, 40, 42, 44-47, 52-54]. The assay sensitivity was of […] 400 RNA copies per mL.
Data were analyzed using GraphPad Prism (version 7.00, GraphPad Software, Inc., La Jolla, CA). Analytic simulations of dose-response curves using the median-effect principle and mass-action law, and its combination index theorem were carried out using CompuSyn.

[2] = system: cervical epithelial cells; settings: at a concentration of 10- to 100-fold greater than that which blocks HIV infection; cited from earlier work
From the text: The short amphipathic helical peptide SWLRDIWDWICEVLSDFK called C5A, was originally identified by the Chisari lab as an active anti-hepatitis C virus (HCV) agent. The C5A amino acid sequence encompasses the region that permits the anchoring of the HCV nonstructural protein 5A (NS5A) into the ER membrane by an in-plane amphipathic alpha-helix (Fig. 1).

[3] = seminal plasma, cervical and vaginal fluids; cited from earlier work
From the text: (§1) In the absence of a safe and effective vaccine, there is an imperative demand for effective agents to reduce the 7,000 new HIV infections occurring every day. An attractive possibility is to identify the best drugs and drug combinations, delivered by optimal nBP methods such Intravaginal Rings (IVRs) for vaginal delivery and gels or enemas for rectal protection. We previously reported that C5A, a short, amphipathic, 18 amino acid (SWLRDIWDWICEVLSDFK) helical peptide, inhibits in vitro infectivity of a broad range of primary HIV isolates in various primary target cells. In this study, we ...

[4] = system: HIV; settings: cited from earlier work
From the text: as §1

[5] = system: simian-human immunodeficiency virus (SHIV-162P3); settings: vaginal application of C5A; ref 58 (b36 prints ref 57); cited from earlier work
From the text: as §1, with “... || Following these studies with unformulated C5A solutions applied topically, the next goal is to formulate C5A, alone and in combination with other antiretroviral agents, into murine intravaginal rings to evaluate sustained topical delivery approaches for protection against vaginal and rectal HIV challenges. We plan on using a combination of drugs with distinct mechanisms of action.” for “...”

[6] = macaques vaginally treated with repeated C5A applications; cited from earlier work
From the text: Following these studies with unformulated C5A solutions applied topically, the next goal is to formulate C5A, alone and in combination with other antiretroviral agents, into murine intravaginal rings to evaluate sustained topical delivery approaches for protection against vaginal and rectal HIV challenges. We plan on using a combination of drugs with distinct mechanisms of action.

[7] = system: HSV; settings: Vero cells, human dendritic cells, primary genital epithelial cells in vitro, human epidermis ex vivo; cited from earlier work
From the text: Previous studies have shown that C5A inhibits HSV infection of Vero cells, human dendritic cells and primary genital epithelial cells in vitro as well as human epidermis (epidermal sheets) ex vivo, and that it inhibits acyclovir- and ganciclovir-resistant HSV isolates. Remarkably, in an in vitro transwell assay, C5A prevented HIV transmigration by preserving the integrity of the genital epithelium that ...

SWLRDIWDWICEVLSDFK [C5A]
Slope parameter (m) of median-effect plot ([1]; rectal compartment): 7.7 ± 1.2 | EC50 ([1]; rectal dosing, read-out: EC50 for protection against rectal HIV challenge): 25.7 µM | Slope parameter (m) of median-effect plot ([1]; vaginal compartment): 7.6 ± 1.2 | EC50 ([1]; vaginal dosing, read-out: EC50 for protection against vaginal HIV challenge): 32.5 µM | Toxicity to cervical epithelial cells [2]: not toxic | Antiviral activities in genital fluids [3]: maintains its antiviral activities | Antiviral activity between pH 5 and 7 ([4]; pH 5 to 7): keeps is antiviral activity | Antiviral activity at pH 8 ([4]; pH 8): loses its activity | Protection against a vaginal challenge of HIV ([4]; topical vaginal administration of 200 µM C5A in PBS, humanized mice): 100% | Macaques protected from SHIV-162P3 challenge [5]: 89% | Signs of lesions or inflammation [6]: no signs of lesions or inflammation | Inhibition of HSV infection [7]: efficiently inhibits
